Source: patent publication US6019959A, “Oligomeric compounds that contain perfluoroalkyl, process for their production, and their use in NMR diagnosis” (Schering Aktiengesellschaft, priority 1998, dated 2000)
Entries after “also recorded” stand apart in the source; their conditions may differ. Read-outs that look alike come from different tables or passages of the source.

Assays:
[1] = Determination of the T1-relaxivity with a Minispec pc 20 in human plasma; type: physicochemical; details: for R^1 (T^1-relaxivity): 0.47 T (20 MHz), 37° C., human plasma, normalized to one metal atom; for relaxivity r1,plasm: plasma
Experimental: Determination of the T^1 -Relaxivity of Selected Compounds
The relaxivity of the following compounds was determined
with a Minispec pc 20 (20 MHz, 0.47 T) at 37° C. in human plasma
and compared to that of Gd-DTPA-polylysine and Magnevist^(R) as
comparison substances. Since the substances according to the
invention contain more than one metal atom, the relaxivity was
normalized to one metal atom for purposes of comparison.

[2] = rat, in vivo; cited from earlier work
[3] = cited from earlier work
[4] = In-vivo comparison with an intravascular and an extracellular contrast medium in blocked kidneys (diffusibility); design: species or system rats; details: for Percentage of the dose that remains in the blood space: i.v., blocked renal vessels, compound 2 set at 100%
Experimental: As test animals, three 250 g male (Schering-SPF) rats were used. The renal vessels in the animals were blocked to prevent renal elimination and, assuming that fecal elimination is negligible, to obtain a measure of the diffusibility of the formulation according to the invention from the blood into the surrounding tissue. 0.5 ml (in each case 10 mmol/l) of the following contrast medium solution was intravenously administered per animal: a mixture consisting of 1 part each of the compound of Example 1g, named compound 1 below, of intravascular contrast medium Eu-DTPA-albumin, named compound 2 below and of extracellular contrast medium Dy-DTPA, named compound 3 below. Via a catheter in the common carotid artery, blood samples were taken at the following times: 15, 30, 45, 60, 90 seconds; 3, 5, 10, 15 minutes p.i. In the blood samples that were obtained, in each case the concentrations of gadolinium (Gd), europium (Eu) and dysprosium (Dy) were measured in parallel using atom emission spectrometry (ICP-AES). The proportion of the intravascular contrast medium compound 2 (Eu) that remains in the blood space was set at 100%. It was possible to compare the proportion of the formulation according to the invention of compound 1 (Gd) and compound 3 (Dy, extracellular comparison substance) that remained in the blood space by the different labeling in the same animal, and the proportion was set as a percentage of the concentration of compound 2.

[5] = Blood elimination kinetics after one-time intravenous administration; type: in vivo, rats; details: for Distribution volume Vss (MEAN) / Elimination half-life tβ (MEAN) / Total clearance CLtot (MEAN) / tα (MEAN): two-compartment model, n=3; for distribution volume in comparison to Dy-DTPA / elimination from the blood in comparison to Dy-DTPA: i.v., rats
Experimental: For this purpose, after one-time intravenous administration (via a caudal vein) of the substances (dose: ≈100 μmol of metal per kg of body weight), the substance concentration in the blood (based on the Gd or Dy content) was determined over a period of up to 120 minutes p.i. using ICP-AES. The pharmacokinetic parameters: distribution volume (Vss), total clearance (CLtot) and elimination half-life (tb) were calculated with a special computer program (TOPFIT 2.0; Thomae, Schering, Godecke), whereby a two-compartment distribution model was used as a basis.
The Gd and Dy contents in the blood were determined using ICP-AES.
For this purpose, after one-time intravenous administration (via a caudal vein) of the substances (dose: ≈100 μmol of metal per kg of body weight), the substance concentration in the blood (based on the metal content) was determined over a period of up to 120 minutes p.i. using ICP-AES. The pharmacokinetic parameters: distribution volume (Vss), total clearance (CLtot) and elimination half-life (tb) were calculated with a special computer program (TOPFIT 2.0; Thomae, Schering, Godecke), whereby a two-compartment distribution model was used as a basis.

[6] = Contrast-medium-supported MR angiography; type: in vivo, rats; details: one-time i.v. 50 or 100 μmol/kg, 2.0 tesla
Experimental: The studies on contrast-medium-supported MR angiography were performed on an experimental MRT system (SISCO SIS 85, 2.0 tesla) with a 3 D FLASH technique (10/2.6/40°).
To determine the effectiveness of contrast media for visualizing blood vessels, anesthetized (Rompun®+Ketavet®, 1+1, v/v; ≈1 ml per kg of body weight, i.m.) rats (Han. Wistar; ≈200 g of body weight) were studied by MR tomography.
The MIP (maximum intensity projection) images were calculated from the 3 D FLASH experiments before (left) and directly after one-time i.v. administration of 50 μmol/kg (center) or 100 μmol/kg (right) of the substance of Example 1g.

[7] = Lymph node concentration in guinea pigs after subcutaneous administration (ICP-AES); type: in vivo, guinea pig; details: 10 μmol/kg s.c., MW±SD, n=3
From the text: The compounds according to the invention meet all of the requirements that are imposed by contrast media in indirect NMR lymphography: good local compatibility, quick removal from the injection site, quick and as complete an elimination as possible from the entire organism. They also show a high concentration over several lymph node stations and thus allow relevant diagnostic assessments. Thus, in the guinea pig model, a high concentration over several lymph node stations (popliteal, inguinal, iliac) after s.c. administration (2.5-10 μmol/kg of body weight, injection in the interdigital spaces of the hind paws) was shown. In especially suitable cases, gadolinium concentrations of, respectively, ≥200 or ≥300 μmol/l were thus obtained in the second (inguinal) and third (iliac) stations. Lymph node concentrations up to 1,000 μmol/l can usually be obtained with the compounds according to the invention.
The gadolinium complex of Example 19 was studied 30 minutes/90 minutes after subcutaneous administration (10 μmol of total gadolinium/kg of body weight, hind paw s.c.) to stimulated guinea pigs (complete Freund adjuvant; in each case 0.1 ml in the right and left upper and lower legs; 2 weeks before administration of the test substance) to determine their lymph node concentration in three successive lymph node stations (popliteal, inguinal, iliac). In this case, the results that are listed below (determination of gadolinium concentration using ICP-AES) are obtained:
Gd-Concentration [μmol/l] in three successive lymph node stations 30 and 90 minutes after interstitial administration of 10 μmol/kg (MW±SD, n=3)

[8] = Retention of the opacifying metal at the injection site; type: in vivo, guinea pig; details: 10 μmol/kg s.c., MW±SD, n=3
From the text: After s.c. administration of 10 μmol of total gadolinium (Example 19)/kg of body weight in the guinea pig's paw, the retention of metal at the injection site was studied at different times.
Gd-Concentration [% dose] at the Administration Site (Paw), After Interstitial Administration of 10 μmol/kg (MW±SD, n=3)

[9] = Elimination of the contrast medium after s.c. administration (metal retention in organs); type: in vivo, guinea pig; details: 7 d p.i., 10 μmol/kg s.c., MW±SD, n=2
From the text: After subcutaneous administration of 10 μmol of total gadolinium (Example 19)/kg of body weight in the hind paw of the guinea pig, the retention of metal in the liver, in the kidneys and in the spleen was examined 7 days after administration.
Gd Concentration [% of Dose] in the Liver, Kidneys, Spleen (7 d p.i.) After Interstitial Administration of 10 μmol/kg (MW±SD, n=2)

[10] = Table 3, i.v. ≈100 μmol metal/kg
[11] = Table 4, i.v. ≈100 μmol metal/kg

Gd-DTPA-polylysine [reference compound]
R^1 (T^1-relaxivity) [1]: 16.8 L/mmol/s | excretion route [2]: excreted through the kidneys unaltered by glomerular filtration

albumin-Gd-DTPA
concentration in the liver tissue ([3]; 24 hours after intravenous injection): ~30 % of the dose | dose eliminated ([3]; within 24 hours): 20 % of the dose

CC(C(=O)NCC(=O)NCC(=O)N1CCN(C(=O)CNC(=O)CNC(=O)C(C)N2CCN(CC(=O)[O-])CCN(CC(=O)[O-])CCN(CC(=O)[O-])CC2)CCN(C(=O)COCCC(F)(F)C(F)(F)C(F)(F)C(F)(F)C(F)(F)C(F)(F)C(F)(F)C(F)(F)F)CCN(C(=O)CNC(=O)CNC(=O)C(C)N2CCN(CC(=O)[O-])CCN(CC(=O)[O-])CCN(CC(=O)[O-])CC2)CC1)N1CCN(CC(=O)[O-])CCN(CC(=O)[O-])CCN(CC(=O)[O-])CC1.[Gd+3].[Gd+3].[Gd+3] (centres unmarked) [Example 1g, 1,4,7-Tris{,1,4,7-tris(N-carboxylatomethyl)-10-(N-1-methyl-3,6-diaza-2,5,8-trioxo-octane-1,8-diyl)-1,4,7,10-tetraazacyclododecane, Gdcomplex}-10-(N-2H,2H,4H,4H,5H,5H-3-oxa-perfluoro-tridecanoyl)-1,4,7,10-tetraazacyclododecane]
R^1 (T^1-relaxivity) [1]: 19.5 L/mmol/s | relaxivity r1,plasm [1]: ≈ 19.5 l*mmol^-1 *s^-1 | Percentage of the dose that remains in the blood space ([4]; 30 seconds p.i.): 84% | Percentage of the dose that remains in the blood space ([4]; 3 minutes p.i.): 62% | Percentage of the dose that remains in the blood space ([4]; 10 minutes p.i.): 44% | diffusibility from the vascular space into the surrounding tissue ([4]; compared with compound 2 and compound 3, listed as compound 1): slower during the entire test period; also recorded: significantly lower compared to the free diffusible, extracellular compound 3 | Distribution volume Vss (MEAN) [5, 10]: 0.09 Ukg | Elimination half-life tβ (MEAN) [5, 10]: 2.813 h | Total clearance CLtot (MEAN) [5, 10]: 0.41 mU (min*kg) | tα (MEAN) [5, 10]: 4.06 min | distribution volume in comparison to Dy-DTPA [5]: smaller distribution volume | elimination from the blood in comparison to Dy-DTPA [5]: significantly slower elimination from the blood | signal in the blood vessels in MR angiography (3 D FLASH, MIP) [6]: pronounced signal increase in the blood vessels

1,4,7-Tris{1,4,7-tris(N-carboxylatomethyl)-10-[N-(4,7-diaza-3,6,9-trioxo)-nonane-2,9-diyl]-1,4,7,10-tetraazacyclododecane, Gd complex}-10-[N-acetyl-(2-amino-N-ethyl-N-perfluoro-octylsulfonyl)]-1,4,7,10-tetraazacyclododecane [Example 19]
R^1 (T^1-relaxivity) [1]: 21.4 L/mmol/s | relaxivity r1,plasm [1]: ≈ 19.5 l*mmol^-1 *s^-1 | concentration ([7]; 30 minutes p.i., read-out: Gd concentration, blood): 24 ± 3 µM | concentration ([7]; 30 minutes p.i., read-out: Gd concentration, iliac lymph nodes): 50 ± 18 µM | concentration ([7]; 30 minutes p.i., read-out: Gd concentration, inguinal profund lymph nodes): 43 ± 41 µM | concentration ([7]; 30 minutes p.i., read-out: Gd concentration, popliteal lymph nodes): 345 ± 319 µM | concentration ([7]; 30 minutes p.i., read-out: Gd concentration, urine): 261 ± 167 µM | concentration ([7]; 90 minutes p.i., read-out: Gd concentration, blood): 25 ± 4 µM | concentration ([7]; 90 minutes p.i., read-out: Gd concentration, iliac lymph nodes): 20 ± 8 µM | concentration ([7]; 90 minutes p.i., read-out: Gd concentration, inguinal profund lymph nodes): 9 ± 2 µM | concentration ([7]; 90 minutes p.i., read-out: Gd concentration, popliteal lymph nodes): 75 ± 20 µM | concentration ([7]; 90 minutes p.i., read-out: Gd concentration, urine): 348 ± 119 µM | Gadolinium concentration at the injection site (paw) ([8]; 30 minutes p.i.): 48.4 ± 10.4 % of dose | Gadolinium concentration at the injection site (paw) ([8]; 90 minutes p.i.): 8.0 ± 1.7 % of dose | Gadolinium concentration at the injection site (paw) ([8]; 7 days p.i.): 0.7 ± 0.6 % of dose | Gadolinium content in the organs, kidneys [9]: 0.06 ± 0.04 % dose | Gadolinium content in the organs, liver [9]: 0.09 ± 0.09 % dose | Gadolinium content in the organs, spleen [9]: 0.00 ± 0.01 % dose | Distribution volume Vss (MEAN) [5, 11]: 0.12 Ukg | Elimination half-life tβ (MEAN) [5, 11]: 1.49 h | Total clearance CLtot (MEAN) [5, 11]: 0.94 mL·kg·min | tα (MEAN) [5, 11]: 2.52 min | distribution volume in comparison to Dy-DTPA [5]: smaller distribution volume | elimination from the blood in comparison to Dy-DTPA [5]: significantly slower elimination from the blood
